{
  "source": "patent EP0747380B1",
  "about": "“Compounds and compositions with nitrogen-containing non-basic side chains” (ELI LILLY AND COMPANY, priority 1995, dated 1996)",
  "key": {"uterus": {"system": "uterus", "experiment": "Uterine wet weight, post-menopausal (OVX) rat model, four day dosing regimen", "format": "in vivo, female Sprague Dawley rats", "settings": "oral, daily for 4 days, OVX rats, * = significantly different than OVX control", "protocol": "In the examples illustrating the methods, a post-menopausal model was used in which effects of different treatments upon various biological parameters were determined, including serum cholesterol concentration, uterine weight, eosinophil peroxidase activity, MCF-7 cell proliferation, and bone density.\n(§1) Animals were dosed daily for 4 days. […] A blood sample was collected by cardiac puncture."}, "serum cholesterol": {"system": "serum cholesterol", "experiment": "Serum cholesterol analysis, OVX rat, four day dosing regimen", "format": "in vivo, female Sprague Dawley rats", "settings": "oral, daily for 4 days, OVX rats, * = significantly different than OVX control; for inhibition in vivo at 0.1 mg/kg / inhibition in vivo at 1 mg/kg / inhibition in vivo at 10 mg/kg: Rattus norvegicus, 96 h, read-out: Serum Cholesterol (% dec. OVX)", "protocol": "as §1\nBlood samples were allowed to clot at room temperature for 2 hours, and serum was obtained following centrifugation for 10 minutes at 3000 rpm. Serum cholesterol was determined using a Boehringer Mannheim Diagnostics high performance cholesterol assay. Briefly the cholesterol was oxidized to cholest-4-en-3-one and hydrogen peroxide. The hydrogen peroxide was then reacted with phenol and 4-aminophenazone in the presence of peroxidase to produce a p-quinone imine dye, which was read spectrophotemetrically at 500 nm. Cholesterol concentration was then calculated against a standard curve. The entire assay was automated using a Biomek Automated Workstation."}, "[1]": {"system": "eosinophil peroxidase activity", "experiment": "Uterine eosinophil peroxidase (EPO) assay, OVX rat, four day dosing regimen", "settings": "oral, daily for 4 days, OVX rats, * = significantly different than OVX control", "source_text": "Seventy-five day old female Sprague Dawley rats (weight range of 200 to 225 g) were obtained from Charles River Laboratories (Portage, MI). The animals were either bilaterally ovariectomized (OVX) or exposed to a sham surgical procedure (Intact) at Charles River Laboratories, and then shipped after one week. Upon arrival, they were housed in metal hanging cages in groups of 3 or 4 per cage and had ad libitum access to food (calcium content approximately 0.5%) and water for one week. […] The photoperiod in the room was 12 hours light and 12 hours dark.\nAfter a one week acclimation period (therefore, two weeks post-OVX), daily dosing with test compound was initiated. 17α-Ethynyl estradiol (EE2) (Sigma Chemical Co., St. Louis, MO), an orally available form of estrogen, or the test compound were given orally, unless otherwise stated, as a suspension in 1% carboxymethyl cellulose or dissolved in 20% cyclodextrin. Animals were dosed daily for 4 days. Following the dosing regimen, animals were weighed and anesthetized with a ketamine:xylazine (2:1, v:v) mixture. A blood sample was collected by cardiac puncture. The animals were then sacrificed by asphyxiation with CO2, the uterus was removed through a midline incision, and a wet uterine weight was determined.\nUteri were kept at 4° C until time of enzymatic analysis. The uteri were then homogenized in 50 volumes of 50 mM Tris buffer (pH - 8.0) containing 0.005% Triton X-100. Upon addition of 0.01% hydrogen peroxide and 10 mM o-phenylenediamine (final concentrations) in Tris buffer, increase in absorbance was monitored for one minute at 450 nm. […] The maximal velocity of a 15 second interval was determined over the initial, linear portion of the reaction curve."}, "[2]": {"system": "MCF-7 breast adenocarcinoma cells", "experiment": "MCF-7 proliferation assay (tritiated thymidine incorporation)", "format": "cell-based", "settings": "Homo sapiens, MCF7; MCF-7 cells, 48 hours with drug, tritiated thymidine pulse 4 hours; read-out: ED50 (the source's name)", "protocol": "MCF-7 breast adenocarcinoma cells (ATCC HTB 22) were maintained in MEM (minimal essential medium, phenol red-free, Sigma, St. Louis, MO) supplemented with 10% fetal bovine serum (FBS) (V/V), L-glutamine (2 mM), sodium pyruvate (1 mM), HEPES {(N-[2-hydroxyethyl]piperazine-N'-[2-ethanesulfonic acid]10 mM}, non-essential amino acids and bovine insulin (1 µg/ml) (maintenance medium). Ten days prior to assay, MCF-7 cells were switched to maintenance medium supplemented with 10% dextrancoated charcoal stripped fetal bovine serum (DCC-FBS) assay medium) in place of 10% FBS to deplete internal stores of steroids. MCF-7 cells were removed from maintenance flasks using cell dissociation medium (Ca++/Mg++ free HBSS (phenol red-free) supplemented with 10 mM HEPES and 2 mM EDTA). Cells were washed twice with assay medium and adjusted to 80,000 cells/ml. […] Serial dilutions of drugs or DMSO as a diluent control were prepared in assay medium and […] to triplicate microcultures followed by 50 ml assay medium for a final volume of […]. After an additional 48 hours at 37° C in a 5% CO2 humidified incubator, microcultures were pulsed with tritiated thymidine (1 uCi/well) for 4 hours. Cultures were terminated by freezing at -70° C for 24 hours followed by thawing and harvesting of microcultures. Samples were counted by liquid scintillation."}},
  "note": "Several values for one entry are separate records, joined by “and”; a condition that tells them apart may be missing. Identical values can stand only once.",
  "data": [
    {"smiles": "CN(C)C(=O)COc1ccc(C(=O)c2c(-c3ccc(O)cc3)sc3cc(O)ccc23)cc1", "note": "[Compound 12]", "values": [
      {"measurement": "Uterine Weight (% inc. OVX)", "setting": "uterus; Dose 0.1 mg/kg", "result": -7.7, "unit": "%"},
      {"measurement": "Uterine Weight (% inc. OVX)", "setting": "uterus; Dose 1 mg/kg", "result": 15.4, "unit": "%"},
      {"measurement": "Uterine Weight (% inc. OVX)", "setting": "uterus; Dose 10 mg/kg", "result": "60.7* %"},
      {"measurement": "inhibition in vivo at 0.1 mg/kg", "setting": "serum cholesterol; Dose 0.1 mg/kg", "result": 27.8, "unit": "%"},
      {"measurement": "inhibition in vivo at 1 mg/kg", "setting": "serum cholesterol; Dose 1 mg/kg", "result": 48.2, "unit": "%"},
      {"measurement": "inhibition in vivo at 10 mg/kg", "setting": "serum cholesterol; Dose 10 mg/kg", "result": 71.2, "unit": "%"},
      {"measurement": "Uterine EPO (Vmax)", "setting": "[1]; Dose 0.1 mg/kg", "result": 3.7},
      {"measurement": "Uterine EPO (Vmax)", "setting": "[1]; Dose 1 mg/kg", "result": 6.7},
      {"measurement": "Uterine EPO (Vmax)", "setting": "[1]; Dose 10 mg/kg", "result": "122.3*"}
    ]},
    {"smiles": "O=C(NCCOc1ccc(C(=O)c2c(-c3ccc(O)cc3)sc3cc(O)ccc23)cc1)NC1CCCCC1", "note": "[Compound 20]", "values": [
      {"measurement": "Uterine Weight (% inc. OVX)", "setting": "uterus; Dose 0.1 mg/kg", "result": -29.9, "unit": "%"},
      {"measurement": "Uterine Weight (% inc. OVX)", "setting": "uterus; Dose 1 mg/kg", "result": -27.4, "unit": "%"},
      {"measurement": "Uterine Weight (% inc. OVX)", "setting": "uterus; Dose 10 mg/kg", "result": -32.7, "unit": "%"},
      {"measurement": "inhibition in vivo at 0.1 mg/kg", "setting": "serum cholesterol; Dose 0.1 mg/kg", "result": -27.2, "unit": "%"},
      {"measurement": "inhibition in vivo at 1 mg/kg", "setting": "serum cholesterol; Dose 1 mg/kg", "result": -6, "unit": "%"},
      {"measurement": "inhibition in vivo at 10 mg/kg", "setting": "serum cholesterol; Dose 10 mg/kg", "result": -15.4, "unit": "%"},
      {"measurement": "EC50", "setting": "[2]", "result": 0.1, "unit": "nM"},
      {"measurement": "Uterine EPO (Vmax)", "setting": "[1]; Dose 0.1 mg/kg", "result": 3.0},
      {"measurement": "Uterine EPO (Vmax)", "setting": "[1]; Dose 1 mg/kg", "result": 2.5},
      {"measurement": "Uterine EPO (Vmax)", "setting": "[1]; Dose 10 mg/kg", "result": 2.9}
    ]},
    {"smiles": "CC(=O)N(CCOc1ccc(C(=O)c2c(-c3ccc(O)cc3)sc3cc(O)ccc23)cc1)C1CCCCC1", "note": "[Compound 19]", "values": [
      {"measurement": "Uterine Weight (% inc. OVX)", "setting": "uterus; Dose 0.1 mg/kg", "result": 7, "unit": "%"},
      {"measurement": "inhibition in vivo at 0.1 mg/kg", "setting": "serum cholesterol; Dose 0.1 mg/kg", "result": 14.5, "unit": "%"},
      {"measurement": "EC50", "setting": "[2]", "result": 0.1, "unit": "nM"},
      {"measurement": "Uterine EPO (Vmax)", "setting": "[1]; Dose 0.1 mg/kg", "result": 5.4},
      {"measurement": "Uterine EPO (Vmax)", "setting": "[1]; Dose 1 mg/kg", "result": 3.7}
    ]},
    {"smiles": "N#CCOc1ccc(C(=O)c2c(-c3ccc(O)cc3)sc3cc(O)ccc23)cc1", "note": "[Compound 14]", "values": [
      {"measurement": "Uterine Weight (% inc. OVX)", "setting": "uterus; Dose 0.1 mg/kg", "result": 18.8, "unit": "%"},
      {"measurement": "Uterine Weight (% inc. OVX)", "setting": "uterus; Dose 1 mg/kg", "result": 14.6, "unit": "%"},
      {"measurement": "inhibition in vivo at 0.1 mg/kg", "setting": "serum cholesterol; Dose 0.1 mg/kg", "result": 3.3, "unit": "%"},
      {"measurement": "inhibition in vivo at 1 mg/kg", "setting": "serum cholesterol; Dose 1 mg/kg", "result": 23.7, "unit": "%"},
      {"measurement": "EC50", "setting": "[2]", "result": 0.05, "unit": "nM"},
      {"measurement": "Uterine EPO (Vmax)", "setting": "[1]; Dose 0.1 mg/kg", "result": 3.3},
      {"measurement": "Uterine EPO (Vmax)", "setting": "[1]; Dose 1 mg/kg", "result": 2.4}
    ]},
    {"smiles": "O=C(NCCOc1ccc(C(=O)c2c(-c3ccc(O)cc3)sc3cc(O)ccc23)cc1)c1ccccc1", "note": "[Compound 18]", "values": [
      {"measurement": "EC50", "setting": "[2]", "result": 500, "unit": "nM"},
      {"measurement": "Uterine EPO (Vmax)", "setting": "[1]; Dose 0.1 mg/kg", "result": 3.2},
      {"measurement": "Uterine EPO (Vmax)", "setting": "[1]; Dose 1 mg/kg", "result": 3.6},
      {"measurement": "Uterine EPO (Vmax)", "setting": "[1]; Dose 10 mg/kg", "result": 3.6}
    ]},
    {"smiles": "COc1ccc(-c2sc3cc(OC)ccc3c2C(=O)c2ccc(OCC(=O)N3CCCCC3)cc2)cc1", "note": "[Compound 7]", "values": [
      {"measurement": "Uterine Weight (% inc. OVX)", "setting": "uterus; Dose 0.1 mg/kg", "result": -0.5, "unit": "%"},
      {"measurement": "Uterine Weight (% inc. OVX)", "setting": "uterus; Dose 1 mg/kg", "result": -16.2, "unit": "%"},
      {"measurement": "Uterine Weight (% inc. OVX)", "setting": "uterus; Dose 10 mg/kg", "result": 8.4, "unit": "%"},
      {"measurement": "Uterine EPO (Vmax)", "setting": "[1]; Dose 0.1 mg/kg", "result": 5.2},
      {"measurement": "Uterine EPO (Vmax)", "setting": "[1]; Dose 1 mg/kg", "result": 3.7},
      {"measurement": "Uterine EPO (Vmax)", "setting": "[1]; Dose 10 mg/kg", "result": 4.7}
    ]},
    {"smiles": "O=C(c1ccc(OCC(=O)N2CCCC2)cc1)c1c(-c2ccc(O)cc2)sc2cc(O)ccc12", "note": "[Compound 8]", "values": [
      {"measurement": "Serum Cholesterol (% dec. OVX)", "setting": "serum cholesterol; Dose 0.1 mg/kg", "result": 25.8, "unit": "%"},
      {"measurement": "Serum Cholesterol (% dec. OVX)", "setting": "serum cholesterol; Dose 1 mg/kg", "result": "69.6* % and 39.4* %"},
      {"measurement": "Serum Cholesterol (% dec. OVX)", "setting": "serum cholesterol; Dose 10 mg/kg", "result": "64.5* %"},
      {"measurement": "EC50", "setting": "[2]", "result": 10, "unit": "nM"},
      {"measurement": "Uterine EPO (Vmax)", "setting": "[1]; Dose 0.01 mg/kg", "result": 3.5},
      {"measurement": "Uterine EPO (Vmax)", "setting": "[1]; Dose 0.1 mg/kg", "result": "3.6 and 4.4"},
      {"measurement": "Uterine EPO (Vmax)", "setting": "[1]; Dose 1 mg/kg", "result": "6.1 and 3.7"}
    ]},
    {"smiles": "CC(C#N)Oc1ccc(C(=O)c2c(-c3ccc(O)cc3)sc3cc(O)ccc23)cc1", "note": "(stereo not shown) [Compound 16]", "values": [
      {"measurement": "EC50", "setting": "[2]", "result": 0.02, "unit": "nM"},
      {"measurement": "Uterine EPO (Vmax)", "setting": "[1]; Dose 0.1 mg/kg", "result": 2.3},
      {"measurement": "Uterine EPO (Vmax)", "setting": "[1]; Dose 1 mg/kg", "result": 3.9},
      {"measurement": "Uterine EPO (Vmax)", "setting": "[1]; Dose 10 mg/kg", "result": 23.4}
    ]}
  ]
}
